Data taken from patent EP2727916A1, “Neuroprotective multi-target directed drugs” (Universitat Autònoma de Barcelona, priority 2012, dated 2014).
“Also recorded” adds a separate entry of the source.

What was measured:
Format in all cases: biochemical
[1] = target: T1, ratMAO-B (Rattus norvegicus, UniProt P19643); assay: MAO-B inhibition, radiometric method of Fowler and Tipton (14C PEA); design: MAO-A and MAO-B activities were determined in rat brain homogenate; from tissue; host or cells: rat brain homogenate per the methods
T1 sequence (P19643 1-520): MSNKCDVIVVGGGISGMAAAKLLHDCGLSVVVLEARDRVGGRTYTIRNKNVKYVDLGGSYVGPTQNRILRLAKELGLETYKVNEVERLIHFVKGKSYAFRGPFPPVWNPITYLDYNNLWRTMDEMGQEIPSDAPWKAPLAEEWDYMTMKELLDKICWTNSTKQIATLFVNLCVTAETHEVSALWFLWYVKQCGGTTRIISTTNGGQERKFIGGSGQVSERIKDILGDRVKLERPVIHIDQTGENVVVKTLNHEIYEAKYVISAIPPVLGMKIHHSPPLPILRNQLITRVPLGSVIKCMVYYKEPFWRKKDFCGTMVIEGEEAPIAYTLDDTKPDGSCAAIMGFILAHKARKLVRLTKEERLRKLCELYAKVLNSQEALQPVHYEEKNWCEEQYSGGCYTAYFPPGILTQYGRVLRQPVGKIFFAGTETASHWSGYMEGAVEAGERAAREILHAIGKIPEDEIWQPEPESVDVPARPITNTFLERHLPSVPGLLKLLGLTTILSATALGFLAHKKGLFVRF

[2] = target: T2, MAO-A (Rattus norvegicus, UniProt P21396); assay: Time-dependence of MAO-A inhibition (pre-incubation times)
T2 construct: from tissue; host or cells: rat brain homogenate per the methods
T2 sequence (P21396 1-526): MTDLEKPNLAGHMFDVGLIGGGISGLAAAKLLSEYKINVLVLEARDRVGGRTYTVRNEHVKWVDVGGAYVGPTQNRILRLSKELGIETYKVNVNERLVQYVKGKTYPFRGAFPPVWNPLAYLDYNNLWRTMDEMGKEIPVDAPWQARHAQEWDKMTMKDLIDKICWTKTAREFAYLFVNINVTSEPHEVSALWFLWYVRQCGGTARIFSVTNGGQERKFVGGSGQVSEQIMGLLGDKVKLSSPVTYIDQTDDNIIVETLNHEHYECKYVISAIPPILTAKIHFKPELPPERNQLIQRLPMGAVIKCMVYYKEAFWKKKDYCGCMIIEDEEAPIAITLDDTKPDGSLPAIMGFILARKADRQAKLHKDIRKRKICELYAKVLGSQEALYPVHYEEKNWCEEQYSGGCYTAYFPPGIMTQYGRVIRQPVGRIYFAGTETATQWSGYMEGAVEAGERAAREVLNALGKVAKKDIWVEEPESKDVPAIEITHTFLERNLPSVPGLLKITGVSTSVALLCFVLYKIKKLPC
Experimental: (§1) Lineweaver-Burk reciprocal plots of initial velocity and substrate concentrations (0.1-1 mM) are presented. […] Lineweaver-Burk reciprocal plots of initial velocity and substrate concentrations (0.1-1 mM) are presented. […] Lineweaver-Burk reciprocal plots of initial velocity and substrate concentrations (0.1-1 mM) are presented. […] Three consecutive centrifuges were performed with buffer. […] 5 µM). All solution were made using Tris buffer pH7.4. […] 5 µM). All solution were made using Tris buffer pH7.4. […] 5 µM). All solution were made using Tris buffer pH7.4. Spectra were obtained after a Short-time incubation
Independent inhibition assays were also performed at different pre-incubation periods for both two MAO isoforms (Figure 6). […]

[3] = target: EeAChE (Electrophorus electricus, UniProt O42275); assay: Kinetic study of EeAChE inhibition (Lineweaver-Burk plots)
EeAChE, sequence (O42275 24-633): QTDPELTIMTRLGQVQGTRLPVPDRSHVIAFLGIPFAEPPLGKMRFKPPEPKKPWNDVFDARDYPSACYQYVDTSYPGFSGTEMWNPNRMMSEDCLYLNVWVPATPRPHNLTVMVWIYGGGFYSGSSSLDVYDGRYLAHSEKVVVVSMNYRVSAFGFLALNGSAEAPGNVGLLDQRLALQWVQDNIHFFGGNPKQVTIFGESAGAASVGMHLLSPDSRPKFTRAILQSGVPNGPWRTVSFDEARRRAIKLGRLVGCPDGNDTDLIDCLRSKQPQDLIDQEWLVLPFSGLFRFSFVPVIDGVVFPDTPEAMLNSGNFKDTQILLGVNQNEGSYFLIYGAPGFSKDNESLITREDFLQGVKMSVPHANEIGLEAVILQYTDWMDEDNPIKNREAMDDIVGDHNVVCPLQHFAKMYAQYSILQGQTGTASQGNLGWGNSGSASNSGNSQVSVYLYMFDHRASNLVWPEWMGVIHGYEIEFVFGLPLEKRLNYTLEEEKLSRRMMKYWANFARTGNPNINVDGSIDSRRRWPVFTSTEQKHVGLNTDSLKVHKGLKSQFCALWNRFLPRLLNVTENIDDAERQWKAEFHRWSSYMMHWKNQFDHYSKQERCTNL
Experimental: as §1
To determine the type of the EeAChE inhibition mechanism of these compounds, a kinetic study was carried out on inhibitor 6.

[4] = target: T3, ratMAO-A (Rattus norvegicus, UniProt P21396); assay: Kinetic study of MAO-A inhibition (Lineweaver-Burk plots); design: from tissue; host or cells: rat brain homogenate per the methods
T3 sequence (P21396 1-526): T2 sequence (P21396 1-526)
Experimental: as §1

[5] = target: T3, ratMAO-A; assay: MAO-A inhibition, radiometric method of Fowler and Tipton (14C 5-HT); design: MAO-A and MAO-B activities were determined in rat brain homogenate; from tissue; host or cells: rat brain homogenate per the methods
[6] = target: T2, MAO-A; assay: Reversibility study of MAO-A inhibition (centrifugation and washing)
Experimental: as §1

[7] = target: electrophorus electricus acetylcholinesterase (eeAChE) (Electrophorus electricus, UniProt O42275); assay: biochemical
electrophorus electricus acetylcholinesterase (eeAChE), sequence (O42275 24-633): as above

[8] = 20 µM, pre-incubation times 0-360 min
[9] = Lineweaver-Burk reciprocal plots
[10] = estimated from the slopes of double reciprocal plots

SMILES: C#CCN(Cc1ccc(O)c2ncccc12)C(C#N)CCC1CCN(Cc2ccccc2)CC1 (centres unmarked) [Compound 6, 4-(1-benzylpiperidin-4-yl)-2-(((8-hydroxyquinolin-5-yl)methyl)(prop-2-yny)amino)butanenitrile]
- IC50 [1]: 10.2 ± 0.9 µM
- MAO-B/ MAO-A [1]: 1.7
- fold less active than M-30 for the inhibition of MAO-B [1]: 179 fold
- pre-incubation period to complete MAO-A activity inhibition [2, 8]: ≥ 180 min
- time-dependence of MAO-A inhibition [2, 8]: irreversible behaviour; also recorded: time-dependent
- IC50 ([2]; pre-incubation time 0 min): 29.1 µM
- IC50 ([2]; pre-incubation time 30 min): 5.8 µM
- IC50 ([2]; pre-incubation time 60 min): 2.3 µM
- IC50 ([2]; pre-incubation time 240 min): 0.7 µM
- type of EeAChE inhibition mechanism [3, 9]: mixed-type inhibition
- Ki [3, 10]: 1.21 ± 0.25 µM
- type of MAO-A inhibition mechanism [4, 9]: non-competitive inhibition
- Ki [4, 10]: 8.41 ± 1.32 µM
- IC50 [5]: 6.16 ± 0.7 µM
- fold less active than M-30 for the inhibition of MAO-A [5]: 166 fold
- fold more active than donepezil 1 for MAO-A [5]: 138 fold
- reversibility of MAO-A inhibition ([6]; 30 min inhibition (6 at 10 µM, clorgyline 50 nM), three consecutive centrifugations and washings with buffer): reversibly inhibited
- MAO-A activity recovering ([6]; inhibited at 10 µM for 30 min, three consecutive centrifuges with buffer, mean ± SEM): 56.5 ± 9.3%
- IC50 [7]: 1.77 ± 0.1 µM
- fold more active than M-30 for the inhibition of AChE ([7]; compared with M-30): 64 fold
